{
  "source": "patent US20260265227A1",
  "about": "“AMIDE PRODRUGS AND USES THEREOF” (Autobahn Therapeutics, Inc., priority 2022, published 2026)",
  "data": [
    {"molecular_target": "T1, recombinant human FAAH (rhFAAH) (Homo sapiens, UniProt O00519)", "T1 construct": "purchased Cayman Chemical (Ann Arbor, MI, USA)", "T1 sequence (O00519 1-579)": "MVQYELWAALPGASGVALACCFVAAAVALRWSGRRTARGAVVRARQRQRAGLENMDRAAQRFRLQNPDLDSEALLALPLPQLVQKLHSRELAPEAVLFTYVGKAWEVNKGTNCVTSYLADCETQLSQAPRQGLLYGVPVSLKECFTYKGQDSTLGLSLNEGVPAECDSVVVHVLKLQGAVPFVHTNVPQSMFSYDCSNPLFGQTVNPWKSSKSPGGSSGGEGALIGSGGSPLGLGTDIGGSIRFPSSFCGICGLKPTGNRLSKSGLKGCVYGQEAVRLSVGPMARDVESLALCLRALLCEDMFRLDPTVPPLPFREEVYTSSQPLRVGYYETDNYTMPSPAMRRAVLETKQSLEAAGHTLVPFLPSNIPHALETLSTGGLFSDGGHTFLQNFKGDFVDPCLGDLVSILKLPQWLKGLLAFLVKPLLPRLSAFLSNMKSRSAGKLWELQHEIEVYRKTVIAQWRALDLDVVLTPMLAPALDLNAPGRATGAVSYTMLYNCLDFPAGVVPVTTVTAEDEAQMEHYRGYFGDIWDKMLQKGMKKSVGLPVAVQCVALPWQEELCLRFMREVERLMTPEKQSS", "test": "FAAH Substrate Evaluation (formation of acid metabolite from amide prodrug)", "type": "biochemical", "conditions": "0.5 ng/μL rhFAAH, 1 μM test compound, Tris-EDTA buffer pH 8.0, 0.1% BSA, room temperature, 0-60 minutes, LC-MS/MS", "description": "Purified recombinant human FAAH (rhFAAH) was purchased from Cayman Chemical (Ann Arbor, MI, USA). The total volume for each incubation was 400 μL containing a final 0.5 ng/μL rhFAAH, 1 μM test compound, 1.25% ethanol or 1 μM PF-3845 (FAAH inhibitor), and 0.1% bovine serum albumin in Tris-EDTA buffer at pH 8.0). The positive control was LL-341001. The incubation was conducted at the room temperature. At 0, 5, 15, 30 and 60 minutes, an aliquot of 30 μL reaction mixtures was removed and mixed with 300 μL acetonitrile containing 5 ng/mL terfenadine and 10 ng/ml tolbutamide as internal standards to quench the reaction. The resulting mixture was centrifuged at 4000 rpm, 4° C. for 15 minutes, and 100 μL supernatant was ready for LC-MS/MS analysis to measure the formation of acid metabolite.\nAcquity Ultra Performance LC system from Waters was used for sample analysis. The chromatography was performed on a reverse phase Kinetex 2.6 μm C18 column, 2.1×30 mm, 100 Å. The mobile phase A comprised of 0.1% formic acid in water and mobile phase B comprised of 0.1% formic acid in acetonitrile with a 2-min run time at the flow rate of 0.8 mL/min for the acid metabolite from positive control or a 1.5 min run time at the flow rate of 0.9 mL/min for the acid metabolite of test compounds. The mass spectrometer (API-5500 and API Q Trap 4000 Applied Biosystems/MDS SCIEX Instruments, Framingham, MA, USA) was operated under ESI positive or negative ion MRM mode.\nThe formation of acid metabolite was monitored and quantified using one calibration point of 1 μM. The observed rate constant (ke) for the acid metabolite formation was calculated by plotting the metabolite concentration versus time of incubation with the slope being ke and is shown in Table 1.", "values": [
      {"smiles": "C[C@@H](O)CNC(=O)C1CN(CC2=Cc3ccc(OCCCC(F)(F)F)cc3C[C@@H]2C)C1", "note": "[Compound 21, N—((R)-2-hydroxypropyl)-1-(((S)-3-methyl-6-(4,4,4-trifluorobutoxy)-3,4-dihydronaphthalen-2-yl)methyl)azetidine-3-carboxamide]", "ke (observed rate constant for the acid metabolite formation)": "B (ke is less than 1.0 and more than 0)"},
      {"smiles": "C[C@H]1Cc2cc(OCCCC(F)(F)F)ccc2C=C1CN1CC(C(=O)NCCCF)C1", "note": "[Compound 22, (S)-N-(3-fluoropropyl)-1-((3-methyl-6-(4,4,4-trifluorobutoxy)-3,4-dihydro-naphthalen-2-yl)methyl)azetidine-3-carboxamide]", "ke (observed rate constant for the acid metabolite formation)": "B (ke is less than 1.0 and more than 0)"},
      {"smiles": "C[C@H]1Cc2cc(OCCCC(F)(F)F)ccc2C=C1CN1CC(C(=O)Nc2ccncc2)C1", "note": "[Compound 24, (S)-1-((3-methyl-6-(4,4,4-trifluorobutoxy)-3,4-dihydronaphthalen-2-yl)methyl)-N-(pyridin-4-yl) azetidine-3-carboxamide]", "ke (observed rate constant for the acid metabolite formation)": "A (ke is more than or equal to 1.0)"},
      {"smiles": "C[C@H]1Cc2cc(OCCCC(F)(F)F)ccc2C=C1CN1CC(C(=O)NCCC(F)(F)F)C1", "note": "[Compound 25, (S)-1-((3-methyl-6-(4,4,4-trifluorobutoxy)-3,4-dihydronaphthalen-2-yl)methyl)-N-(3,3,3-trifluoropropyl) azetidine-3-carboxamide]", "ke (observed rate constant for the acid metabolite formation)": "A (ke is more than or equal to 1.0)"}
    ]}
  ]
}
